Assay results from patent US20230405157A1, “MELANOCORTIN TYPE 2 RECEPTOR (MC2R) TARGETED THERAPEUTICS AND USES THEREOF” (Radionetics Oncology, Inc., priority 2022, published 2023).

Target: T1, human MC2R (Homo sapiens, UniProt Q01718)
T1 construct: host or cells: CellSensor CRE-bla CHO-K1 cells
Test: Inhibition of binding of ACTH in human MC2R-containing membranes (SPA radioligand competition)
Conditions: competition with 0.2 nM [125I]-TYR23]-ACTH (1-39), membranes of CHO-K1 cells expressing hMC2 receptor; read-out: hMC2 membrane binding
Description: Crude membrane fractions are prepared from CellSensor CRE-blaCHO-K1 cells stably expressing functional hMC2 receptor (ThermoFisher #K1483). […] Cells were collected and washed in Dulbecco's phosphate buffered saline (Corning #21-031-CV). […] The membrane fraction is separated from cell debris and collected in membrane preparation buffer, flash frozen in liquid nitrogen and stored at −80° C. […] Briefly, membranes from cells expressing the human MC2R were incubated with SPA beads (PerkinElmer #RPNQ0001) in binding assay buffer [50 mM HEPES (Biopioneer #C0113), 5 mM MgCl2 (Sigma #M8266), 1 mM CaCl2) (Fisher Scientific #BP510), 0.2% BSA (Fisher Scientific #BP1600), and protease inhibitors (Pierce #A32963); pH 7.4]. […] All data manipulations to determine the Kivalues were performed using GraphPad v8 (GraphPad, San Diego CA)

T1 sequence (Q01718 whole entry): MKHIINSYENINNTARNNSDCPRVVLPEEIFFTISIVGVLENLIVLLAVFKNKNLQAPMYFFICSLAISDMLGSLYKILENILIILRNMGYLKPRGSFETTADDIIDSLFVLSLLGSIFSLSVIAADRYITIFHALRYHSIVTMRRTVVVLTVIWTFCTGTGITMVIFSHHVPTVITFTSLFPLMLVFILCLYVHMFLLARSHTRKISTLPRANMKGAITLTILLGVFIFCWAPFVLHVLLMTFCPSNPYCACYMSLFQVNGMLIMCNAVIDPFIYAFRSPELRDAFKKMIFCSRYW
T1 sequence (Q8TCY5 whole entry partner): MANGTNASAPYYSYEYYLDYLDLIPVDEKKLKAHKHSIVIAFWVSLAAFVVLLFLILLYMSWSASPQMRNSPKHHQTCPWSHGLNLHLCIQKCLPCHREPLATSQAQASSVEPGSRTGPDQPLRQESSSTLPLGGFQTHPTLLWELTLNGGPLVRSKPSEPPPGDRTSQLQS

Row | Compound | Ki
1 | CCOc1ccccc1-c1ccc(N2CCN(C(=O)c3ccc(Cl)cc3C(F)F)C[C@H]2CC)c(C(=O)NC2CCN(CCCOc3cc(NCCOCCNC(=O)CN4CCN(CC(=O)O)CCN(CC(=O)O)CCN(CC(=O)O)CC4)cc(C(=O)O)c3)C2)n1 (stereo in doubt) [Compound 13, 2,2′,2″-(10-(2-((2-(2-((3-carboxy-5-(3-((R)-3-(3-((R)-4-(4-chloro-2-(difluoromethyl)benzoyl)-2-ethylpiperazin-1-yl)-6-(2-ethoxyphenyl)picolinamido)pyrrolidin-1-yl)propoxy)phenyl)amino)ethoxy)ethyl)amino)-2-oxoethyl)-1,4,7,10-tetraazacyclododecane-1,4,7-triyl)triacetic acid] | < 10 nM
2 | CCOc1ccc(C(=O)N2CCN(c3ccc(-c4cccnc4OCC)nc3CNCCCN(CCOCCOCCOCCNC(=O)CN3CCN(CC(=O)O)CCN(CC(=O)O)CCN(CC(=O)O)CC3)CCOCCOCCOCCNC(=O)CN3CCN(CC(=O)O)CCN(CC(=O)O)CCN(CC(=O)O)CC3)[C@H](CC)C2)c(C(F)(F)F)n1 [^115In complex of Compound 4] | < 10 nM
3 | CCOc1ccccc1-c1ncc(C2(C(=O)N[C@@H]3CCN(CCOCCOCCOCCOCCNC(=O)CN4CCN(CC(=O)O)CCN(CC(=O)O)CCN(CC(=O)O)CC4)C3)CCN(c3ccc(C(F)(F)F)cc3C#N)CC2)cc1F [Compound 9, (R)-2,2′,2″-(10-(17-(3-(1-(2-cyano-4-(trifluoromethyl)phenyl)-4-(6-(2-ethoxy-phenyl)-5-fluoropyridin-3-yl)piperidine-4-carboxamido)pyrrolidin-1-yl)-2-oxo-6,9,12,15-tetra-oxa-3-azaheptadecyl)-1,4,7,10-tetraazacyclododecane-1,4,7-triyl)triacetic acid] | < 10 nM
4 | (R)-2,2′,2″-(10-(1-(3-(4-(4-ethoxy-2-(trifluoromethyl)benzoyl)-2-ethylpiperazin-1-yl)-6-(2-ethoxyphenyl)pyridin-2-yl)-19-oxo-6,9,12,15-tetraoxa-2,18-diazaicosan-20-yl)-1,4,7,10-tetraazacyclododecane-1,4,7-triyl)triacetic acid [Compound 11] | < 10 nM
5 | CCOc1ccc(C(=O)N2CCN(c3ccc(-c4cccnc4OCC)nc3CNCCCCCCCCCCCCCCCNC(=O)CN3CCN(CC(=O)O)CCN(CC(=O)O)CCN(CC(=O)O)CC3)[C@H](CC)C2)c(C(F)(F)F)n1 [Compound 14, (R)-2,2′,2″-(10-(2-((15-(((2′-ethoxy-5-(4-(6-ethoxy-2-(trifluoromethyl)nicotinoyl)-2-ethylpiperazin-1-yl)-[2,3′-bipyridin]-6-yl)methyl)amino)pentadecyl)amino)-2-oxoethyl)-1,4,7,10-tetraazacyclododecane-1,4,7-triyl)triacetic acid] | < 10 nM
6 | CCOc1ccc(C(=O)N2CCN(c3ccc(-c4ccccc4OCC)nc3CNCCCOc3cc(NCCOCCNC(=O)CN4CCN(CC(=O)O)CCN(CC(=O)O)CCN(CC(=O)O)CC4)cc(C(=O)O)c3)[C@H](CC)C2)c(C(F)(F)F)c1 [^115In complex of Compound 3] | < 10 nM
7 | CCOc1ccc(C(=O)N2CCN(c3ccc(-c4ccccc4OCC)nc3CNCCNCCCOCCOCCOCCOCCNC(=O)CN3CCN(CC(=O)O)CCN(CC(=O)O)CCN(CC(=O)O)CC3)[C@H](CC)C2)c(C(F)(F)F)c1 [Compound 17, (R)-2,2′,2″-(10-(1-(3-(4-(4-ethoxy-2-(trifluoromethyl)benzoyl)-2-ethylpiperazin-1-yl)-6-(2-ethoxyphenyl)pyridin-2-yl)-22-oxo-9,12,15,18-tetraoxa-2,5,21-triazatricosan-23-yl)-1,4,7,10-tetraazacyclododecane-1,4,7-triyl)triacetic acid] | < 10 nM
8 | 2,2′,2″-(10-((R)-8-amino-1-(2′-ethoxy-5-((R)-4-(6-ethoxy-2-(trifluoromethyl)-nicotinoyl)-2-ethylpiperazin-1-yl)-[2,3′-bipyridin]-6-yl)-7,10,18-trioxo-14-oxa-2,6,11,17-tetra-azanonadecan-19-yl)-1,4,7,10-tetraazacyclododecane-1,4,7-triyl)triacetic acid [Compound 10] | < 10 nM
9 | CCOc1ccc(C(=O)N2CCN(c3ccc(-c4cccnc4OCC)nc3CNCCCNC(=O)C[C@H](O)C[C@H](O)CCNC(=O)CN3CCN(CC(=O)O)CCN(CC(=O)O)CCN(CC(=O)O)CC3)[C@H](CC)C2)c(C(F)(F)F)n1 [Compound 6, 2,2′,2″-(10-(2-(((3R,5R)-7-((3-(((2′-ethoxy-5-((R)-4-(6-ethoxy-2-(trifluoromethyl)-nicotinoyl)-2-ethylpiperazin-1-yl)-[2,3′-bipyridin]-6-yl)methyl)amino)propyl)-amino)-3,5-dihydroxy-7-oxoheptyl)amino)-2-oxoethyl)-1,4,7,10-tetraazacyclododecane-1,4,7-triyl)triacetic acid] | < 10 nM
10 | CCOc1ccc(C(=O)N2CCN(c3ccc(-c4cccnc4OCC)nc3CNCCCOCCOCCOCCOCCNC(=O)CCC(C(=O)O)N3CCN(CC(=O)O)CCN(CC(=O)O)CCN(CC(=O)O)CC3)[C@H](CC)C2)c(C(F)(F)F)n1 (stereo partly drawn) [Compound 18, 2,2′,2″-(10-(22-carboxy-1-(2′-ethoxy-5-((R)-4-(6-ethoxy-2-(trifluoromethyl)-nicotinoyl)-2-ethylpiperazin-1-yl)-(2,3′-bipyridin]-6-yl)-19-oxo-6,9,12,15-tetraoxa-2,18-diazadocosan-22-yl)-1,4,7,10-tetraazacyclododecane-1,4,7-triyl)triacetic acid] | < 10 nM
11 | CCOc1ccc(C(=O)N2CCN(c3ccc(-c4cccnc4OCC)cc3CNCCNCCCOCCOCCOCCOCCNC(=O)CN3CCN(CC(=O)[O-])CCN(CC(=O)[O-])CCN(CC(=O)[O-])CC3)[C@H](CC)C2)c(C(F)(F)F)n1.[Ga+3] [^69/71Ga complex of Compoud 15, gallium (R)-2,2′,2″-(10-(1-(2-(4-(6-ethoxy-2-(trifluoromethyl)nicotinoyl)-2-ethylpiperazin-1-yl)-5-(2-ethoxypyridin-3-yl)phenyl)-22-oxo-9,12,15,18-tetraoxa-2,5,21-triazatricosan-23-yl)-1,4,7,10-tetraazacyclododecane-1,4,7-triyl)triacetate] | < 10 nM
12 | CCOc1ccc(C(=O)N2CCN(c3ccc(-c4cccnc4OCC)nc3CNCCCNC(=O)[C@@H](N)CC(=O)NCCOCCNC(=O)CN3CCN(CC(=O)O)CCN(CC(=O)O)CCN(CC(=O)O)CC3)[C@H](CC)C2)c(C(F)(F)F)n1 [^115In complex of Compound 5] | < 10 nM
13 | CCOc1ccc(C(=O)N2CCN(c3ccc(-c4cccnc4OCC)cc3CNCCNCCCOCCOCCOCCOCCNC(=O)CN3CCN(CC(=O)O)CCN(CC(=O)O)CCN(CC(=O)O)CC3)[C@H](CC)C2)c(C(F)(F)F)n1 [Compound 15, (R)-2,2′,2″-(10-(1-(2-(4-(6-ethoxy-2-(trifluoromethyl)nicotinoyl)-2-ethylpiperazin-1-yl)-5-(2-ethoxypyridin-3-yl)phenyl)-22-oxo-9,12,15,18-tetraoxa-2,5,21-triazatricosan-23-yl)-1,4,7,10-tetraazacyclododecane-1,4,7-triyl)triacetic acid] | < 10 nM
14 | CCOc1ccc(C(=O)N2CCN(c3ccc(-c4cccnc4OCC)nc3CNCCCC[C@@H](NC(=O)CN3CCN(CC(=O)O)CCN(CC(=O)O)CCN(CC(=O)O)CC3)C(=O)O)[C@H](CC)C2)c(C(F)(F)F)n1 [^115In complex of Compound 2] | < 10 nM
